Patent US8242152B2, “Use of 4-[(4-thiazolyl)phenoxy]alkoxy-benzamidine derivatives for the prophylaxis and treatment of osteoporosis” (Dong Wha Pharmaceutical Co., Ltd., priority 2001, dated 2012)

Columns and labels:
osteoclast fusion [1] = assay: Fusion assay of prefusion osteoclasts (Example 2); format: cell-based, mice; conditions: Mus musculus, Osteoclast, 24 hrs
Description: This assay is designed to evaluate the influences of each test substance in terms of osteoclast fusion during the differentiation process in which immature prefusion osteoclasts (pOC; osteoclast structure with one more nuclei) were transformed into mature multinucleated osteoclast (OCL) via cell to cell fusion (Gregg Wesolowski et al. Experimental Cell Research 219,679-686, 1995).
The prefusion osteoclast can be obtained via co-culture of both bone marrow cells and osteoblast, as prepared from Example 1. The mixture of both osteoblast (about 5×10^5 cells/plate) and bone marrow cells (about 1×10^7 cells/plate) were co-cultured in a 100 mm culture dish. Some differentiation factors, such as dexamethasone (10^−6M) and vitamin D3 (10^−9M), were added to the medium from the first day of culture. The medium was changed with a fresh medium containing differentiation factors every 2 days.
Since a great number of the prefusion osteoclasts having one or more nuclei in fusion process were formed during 4-day co-culture, the cells were separated and co-cultivation after 4 days. The medium was removed from the cells and with the addition of 0.2% collagenase solution (4 mL), the cells were incubated at 37° C. for 20 mins to separate the attachment cells. Since the majority of separated cells were osteoblasts, all osteoblasts were washed with PBS solution two or three times for their complete removal.
After the remaining prefusion osteoclasts were separated via reaction for 20 mins with the addition of echistatin containing 10% BSA, the cells were harvested by centrifuge.
The test substances diluted at each concentration were diluted at the desired concentration in α-MEM medium (addition of 10% FBS) to load them into a 96-well microplate in a dose of 100 uL per well. The osteoclastic monocytes, so separated from the preceding No. 1, were plated on a 96-well microplate in a dose of 5×10^3 cell/100 uL per well and cultured at 37° C. for 24 hrs, thus successfully resulting in the osteoclast fusion. In the case of specimen-free and positive controls, experiments were performed in the same manner as above.
The medium was removed from the cells and then the cells were washed once with PBS and fixed to a PBS solution containing 10% formalin for about 5 mins. The cells were again fixed to both ethanol and acetone (1/1) in a mixing solution for about 5 mins and dried off. The cells were further treated by TRAP staining solution for 15 mins and washed with water to observe the cells under the microscope. The TRAP-positive osteoclast counts, which were differentiated from monocyte to multinucleated cells (osteoclast having more than 10 nuclei) via fusion process, were measured.

[2] = test system: osteoclast differentiation; assay: Osteoclast differentiation, co-culture, TRAP(+)MNCs (Example 5); format: cell-based, mice
Experimental: To investigate the effect of compounds on osteoclast differentiation, co-culture between bone marrow cells (2.5×10^5 cells/cm^2) and calvaria-derived osteoblastic cells (4×10^4 cells/cm^2) was conducted in the presence of 1.25(OH)2D3(10^−8 M) and dexamethasone (10^−7 M) with α-MEM containing 10% FBS (referred as “osteoclastic medium”). Bone marrow cells were isolated from the femora of 6-week-old ddY mice and primary osteoblastic cells were isolated from the calvariae of newborn ICR mice by sequential digestion with 0.2% collagenase. The medium was changed every two days with fresh osteoclastic medium. An index of osteoclast formation was determined by counting TRAP-positive multinucleated osteoclasts (TRAP(+)MNCs). On day 6, the cells were fixed with 10% formaldehyde and stained for TRAP. The number of TRAP(+) MNCs containing more than 6-7 nuclei was counted under a microscope (ZEISS Axiovert 25, Switzerland). The results are shown as the relative inhibitory activity (% inhibition) compared to the control group.

osteoclast fusion [3] = assay: Osteoclast fusion assay with purified prefusion osteoclasts (Example 5); format: cell-based, mice
Experimental: The effect of the compounds on the fusion of osteoclasts was examined using purified prefusion osteoclasts (pOC, mononuclear and binuclear osteoclasts). Co-cultures of bone marrow cells (2×10^7 cells/dish) and newborn mice calvariae (1×10^6 cells/dish) were maintained in 100-mm-diameter dishes for 4 days with osteoclast differontiarion factor. Cultures were washed twice with PBS and treated with 0.1% collagenase/dispase at 37° C. for 20 minutes. Released cells, mostly osteoblasts, were removed with a pipet and the plates were washed three times with PBS. The remaining cells were incubated with 30 uM echistatin in α-MEM containing 1% BSA for 20 min at 37° C. These cells were collected, pelleted, and washed once with α-MEM containing 10% FBS. The cells released by this treatment were the subject of the fusion assay. More than 90% of the cells in the pOCs preparation used in the present study were positive for TRAP.
pOCs (15,000 cells/well) were plated on 96 well culture plates with or without various compounds. After culture for 18 hours, the cells were fixed and stained for TRAP.

[4] = test system: osteoclast activity (resorption pits); assay: Bone resorption pit formation assay on dentine slice (Example 5); format: cell-based, mice
Experimental: Method for evaluating the effects of the compounds on osteoclast activity: Multinucleated osteoclasts were developed on collagen gel plates by co-culture system as described. On day 6-8 of the co-culture, multinucleated OCLs were detached from plates by 0.2% collagenase treatment (“crude OCLs”). Crude OCLs suspended in α-MEM containing 10% FBS were placed on a dentine slice (4 mm diameter) in a 96-well culture plate. […] At the end of the incubation, cells were removed by 1 M NH4OH treatment and resorption pits formed (in the slices stained with Mayer's hematoxylin). Resorption pits were enumerated with an image analyzer and compared to the control group.

[5] = test system: Primary osteoblastic cells; assay: ALP activity in primary osteoblastic cells (Example 5); format: cell-based, ICR mice; conditions: 3 days
Experimental: Primary osteoblastic cells isolated from the calvariae of newborn ICR mice were grown to confluence in α-MEM containing 10% FBS. These cells were plated at a density of 1×10^5/ml in tissue culture dishes. After 24 h, cells were changed with a differentiation medium containing ascorbic acid (50 ug/ml) and β-glycerophosphate (10 mM) with or without the compounds and further cultured for 3 days. Cells were washed twice with PBS and harvested. For the measurement of ALP activity and total protein content, cells were extracted into 0.1% Triton X-100 in PBS containing 1 mM MgCl2 and centrifuged at 1.000×g for 5 minutes. Enzyme activity was determined in supernatants by colorimetric procedure using p-nitrophenyl phosphate (PNP) as a substrate at a wavelength of 405 nm and the protein content was determined by a Bio-Rad protein assay kit. The ALP unit was expressed as nmol PNP/ug protein/min.

Cc1nc(-c2ccc(OCCCCCOc3ccc(C(=N)N)cc3)cc2)c(C(C)C)s1 [DW1352, 4-{5-[4-(5-isopropyl-2-methyl-1,3-thiazol-4-yl)phenoxy]pentoxy}-benzamidine]
inhibition at 0.08 µM (osteoclast fusion [1]; 0.08 uM, read-out: Inhibitory action (%)): 5.13% | inhibition at 0.4 µM (osteoclast fusion [1]; 0.4 uM, read-out: Inhibitory action (%)): 24.7% | inhibition at 2 µM (osteoclast fusion [1]; 2 uM, read-out: Inhibitory action (%)): 87.2% | inhibition at 10 µM (osteoclast fusion [1]; 10 uM, read-out: Inhibitory action (%)): 99% | IC50 (osteoclast fusion [1]): 740 nM | inhibition at 0.01 µM ([2]; Mus musculus, Osteoclast, 144 h, 0.01 uM, day 6, read-out: % inhibitory action): 27.1% | inhibition at 0.1 µM ([2]; Mus musculus, Osteoclast, 144 h, 0.1 uM, day 6, read-out: % inhibitory action): 41.3% | inhibition at 1 µM ([2]; Mus musculus, Osteoclast, 144 h, 1 uM, day 6, read-out: % inhibitory action): 80.9% | times stronger inhibition of osteoclast differentiation than DW1351 ([2]; versus DW1351, Table 8): about 1.35 times | inhibition at 0.08 µM (osteoclast fusion [3]; Mus musculus, Osteoclast, 0.08 uM, 18 hours, read-out: Inhibitory action (%)): 5.13% | inhibition at 0.4 µM (osteoclast fusion [3]; Mus musculus, Osteoclast, 0.4 uM, 18 hours, read-out: Inhibitory action (%)): 24.7% | inhibition at 2 µM (osteoclast fusion [3]; Mus musculus, Osteoclast, 2 uM, 18 hours, read-out: Inhibitory action (%)): 87.2% | inhibition at 10 µM (osteoclast fusion [3]; Mus musculus, Osteoclast, 10 uM, 18 hours, read-out: Inhibitory action (%)): 99% | IC50 (osteoclast fusion [3]; Mus musculus, Osteoclast, 18 hours): 740 nM | times more inhibition of osteoclast fusion than DW1351 (osteoclast fusion [3]; versus DW1351): 2.3 times | inhibition at 0.01 µM ([4]; Mus musculus, Osteoclast, 0.01 uM, dentine slice, 24 h, read-out: Inhibitory activity (%)): 21.7% | inhibition at 0.1 µM ([4]; Mus musculus, Osteoclast, 0.1 uM, dentine slice, 24 h, read-out: Inhibitory activity (%)): 36% | inhibition at 1 µM ([4]; Mus musculus, Osteoclast, 1 uM, dentine slice, 24 h, read-out: Inhibitory activity (%)): 64.1% | times more inhibition of osteoclast activity than DW1351 ([4]; versus DW1351, Table 10): about 1.35 times | ALP activity (% of control) ([5]; 0.01 uM): 113.0 % of control | ALP activity (Unit) ([5]; 0.01 uM): 19.2 nmol PNP/ug protein/min | ALP activity (% of control) ([5]; 0.1 uM): 111.7 % of control | ALP activity (Unit) ([5]; 0.1 uM): 19.1 nmol PNP/ug protein/min
